Data reported in ChEMBL document CHEMBL5584260, “Identification of coumarin - benzimidazole hybrids as potential antibacterial agents: Synthesis, in vitro and in vivo biological assessment, and ADMET prediction” (Bioorg Med Chem Lett, 2024).
Converted amounts (≈) assume the structure as drawn.

Experiments:
Klebsiella pneumoniae [1] = test: Antibacterial activity against Klebsiella pneumoniae ATCC 27736 assessed as inhibition of bacterial growth by CLSI protocol based microtiter broth dilution method; type: functional
Acinetobacter baumannii = test: Antibacterial activity against Acinetobacter baumannii BAA-16051 assessed as inhibition of bacterial growth by CLSI protocol based microtiter broth dilution method; type: functional
Pseudomonas aeruginosa [2] = test: Antibacterial activity against Pseudomonas aeruginosa ATCC 27853 assessed as inhibition of bacterial growth by CLSI protocol based microtiter broth dilution method; type: functional
[3] = (§1) Cytotoxicity against human THP-1 cells assessed as cell survival at 50 uM incubated for 24 hrs by MTT assay (reference value: 100.0 +/- 5.24 %); type: toxicity, cell-based; settings: THP-1 cells, read-out: Activity
[4] = (§2) Cytotoxicity against human THP-1 cells assessed as cell survival at 100 uM incubated for 24 hrs by MTT assay (reference value: 100.0 +/- 5.24 %); type: toxicity, cell-based; settings: THP-1 cells, read-out: Activity
THP-1 [5] = test: Cytotoxicity against human THP-1 cells assessed as cell death at 100 uM incubated for 24 hrs by LDH assay (reference value: 0.00 +/- 0.56 %); type: toxicity, cell-based; settings: thp-1, 24 h
THP-1 [6] = test: Cytotoxicity against human THP-1 cells assessed as cell death at 50 uM incubated for 24 hrs by LDH assay (reference value: 0.00 +/- 0.56 %); type: toxicity, cell-based; settings: thp-1, 24 h
Klebsiella pneumoniae [7] = test: Antimicrobial activity against Klebsiella pneumoniae ATCC 27736 infected in neutropenic thigh infection BALB/c mouse model assessed as log reduction in bacterial count in thigh at 50 mg/kg pre-infected with bacteria for 3 to 6 hrs followed by compound administration and measured 36 hrs post infection; type: functional; settings: time 30-33 hrs
Escherichia coli [8] = test: Antibacterial activity against Escherichia coli incubated for 24 hrs by serial broth dilution method; type: functional
Bacillus subtilis [9] = test: Antibacterial activity against Bacillus subtilis incubated for 24 hrs by serial broth dilution method; type: functional
THP-1 [10] = test: as §1; type: toxicity, cell-based; settings: thp-1, 24 h, 50 µM
THP-1 [11] = test: as §2; type: toxicity, cell-based; settings: thp-1, 24 h, 100 µM
Staphylococcus aureus [12] = test: Antibacterial activity against Staphylococcus aureus incubated for 16 hrs by CLSI protocol based microtiter broth dilution method; type: functional
Bacillus subtilis [13] = test: Antibacterial activity against Bacillus subtilis incubated for 16 hrs by CLSI protocol based microtiter broth dilution method; type: functional
Pseudomonas aeruginosa [14] = test: Antibacterial activity against Pseudomonas aeruginosa incubated for 16 hrs by CLSI protocol based microtiter broth dilution method; type: functional
Escherichia coli [15] = test: Antibacterial activity against Escherichia coli incubated for 16 hrs by CLSI protocol based microtiter broth dilution method; type: functional
Staphylococcus aureus [16] = test: Antibacterial activity against Staphylococcus aureus incubated for 24 hrs by serial broth dilution method; type: functional
Pseudomonas aeruginosa [17] = test: Antibacterial activity against Pseudomonas aeruginosa incubated for 24 hrs by serial broth dilution method; type: functional

| MIC (Klebsiella pneumoniae [1]) [µg/mL] | MIC (Acinetobacter baumannii) [µg/mL] | MIC (Pseudomonas aeruginosa [2]) [µg/mL] | Molecule | further results |
| --- | --- | --- | --- | --- |
| > 100 | > 100 | > 100 | O=c1oc2ccc(Br)cc2cc1-c1nc2ccccc2n1-c1ccccc1 |  |
| 1.25 | 3.12 | 1.25 | POLYMYXIN B [listing 1 of 2 here] |  |
| 6.25 (≈ 17.7 µM) | > 100 | > 100 | Cc1ccc(-n2c(-c3cc4ccccc4oc3=O)nc3ccccc32)cc1 | viability at 24 h, 50 µM [3]: 94.1%; viability at 24 h, 100 µM [4]: 27.3%; Activity (THP-1 [5]): 16.88%; Activity (THP-1 [6]): 11.25%; log(activity) (Klebsiella pneumoniae [7]): >2 |
| > 100 | > 100 | > 100 | O=c1oc2ccccc2cc1-c1nc2ccccc2n1-c1ccccc1 |  |
| > 100 | > 100 | > 100 | O=c1oc2ccc(Br)cc2cc1-c1nc2ccccc2[nH]1 |  |
| > 100 | > 100 | > 100 | Cc1ccc(-n2c(-c3cc4cc(Cl)ccc4oc3=O)nc3ccccc32)cc1 |  |
| > 100 | > 100 | > 100 | O=c1oc2ccc(Br)cc2cc1-c1nc2ccccc2n1-c1ccc(Br)cc1 |  |
| > 100 | > 100 | > 100 | O=c1oc2ccc(Cl)cc2cc1-c1nc2ccccc2n1-c1ccccc1 |  |
|  |  |  | O=c1oc2ccccc2c(O)c1C(Sc1nc2ccccc2[nH]1)c1ccc(O)cc1 (configuration not stated) | MIC (Escherichia coli [8]): 250 µg/mL (≈ 600 µM); MIC (Bacillus subtilis [9]): 250 µg/mL (≈ 600 µM) |
| 6.25 (≈ 19.6 µM) | > 100 | > 100 | CCCCn1c(-c2cc3ccccc3oc2=O)nc2ccccc21 | viability at 24 h, 50 µM [3]: 89.7%; viability at 24 h, 100 µM [4]: 27.7%; Activity (THP-1 [5]): 11.43%; Activity (THP-1 [6]): 8.01%; log(activity) (Klebsiella pneumoniae [7]): >2 |
|  |  |  | POLYMYXIN B [listing 2 of 2 here] | Activity (THP-1 [10]): 72.77%; Activity (THP-1 [11]): 54.94%; Activity (THP-1 [5]): 30.59%; Activity (THP-1 [6]): 19.64% |
|  |  |  | O=c1oc2ccccc2cc1/C(Cn1cnc2ccccc21)=N\Oc1ccc(Cl)cc1 | MIC (Staphylococcus aureus [12]): 1.56 µg/mL (≈ 3.63 µM); MIC (Bacillus subtilis [13]): 0.95 µg/mL (≈ 2.21 µM); MIC (Pseudomonas aeruginosa [14]): 3.12 µg/mL (≈ 7.26 µM); MIC (Escherichia coli [15]): 3.12 µg/mL (≈ 7.26 µM) |
| > 100 | > 100 | > 100 | O=c1oc2ccccc2cc1-c1nc2ccccc2n1-c1ccc(Br)cc1 |  |
| > 100 | > 100 | > 100 | O=c1oc2ccc(Cl)cc2cc1-c1nc2ccccc2n1-c1ccc(Cl)cc1 |  |
| 0.78 (≈ 2.03 µM) | > 50 | 6.25 (≈ 16.3 µM) | C[C@@H](O)[C@H]1C(=O)N2C(C(=O)O)=C(S[C@@H]3CN[C@H](C(=O)N(C)C)C3)[C@H](C)[C@H]12 [MEROPENEM] |  |
| > 100 | > 100 | > 100 | O=c1oc2ccc(Cl)cc2cc1-c1nc2ccccc2n1-c1ccc(Br)cc1 |  |
| > 100 | > 100 | > 100 | O=c1oc2ccc(Br)cc2cc1-c1nc2ccccc2n1-c1ccc(Cl)cc1 |  |
| > 100 | > 100 | > 100 | O=c1oc2ccc(Cl)cc2cc1-c1nc2ccccc2[nH]1 |  |
|  |  |  | O=C(CC(Sc1nc2ccccc2[nH]1)c1ccccc1)c1cc2ccccc2oc1=O (configuration not stated) | MIC (Staphylococcus aureus [16]): 2400 µg/mL (≈ 5630 µM); MIC (Pseudomonas aeruginosa [17]): 2200 µg/mL (≈ 5160 µM); MIC (Escherichia coli [8]): 2100 µg/mL (≈ 4920 µM); MIC (Bacillus subtilis [9]): 2300 µg/mL (≈ 5390 µM) |
| > 100 | > 100 | > 100 | O=c1oc2ccccc2cc1-c1nc2ccccc2n1-c1ccc(Cl)cc1 |  |
| > 100 | > 100 | > 100 | Cc1ccc(-n2c(-c3cc4cc(Br)ccc4oc3=O)nc3ccccc32)cc1 |  |

| Molecule | MIC (Klebsiella pneumoniae [1]) [µg/mL] | MIC (Acinetobacter baumannii) [µg/mL] | MIC (Pseudomonas aeruginosa [2]) [µg/mL] | further results |
| --- | --- | --- | --- | --- |
| CN[C@H](CC(C)C)C(=O)N[C@H]1C(=O)N[C@@H](CC(N)=O)C(=O)N[C@H]2C(=O)N[C@H]3C(=O)N[C@H](C(=O)N[C@H](C(=O)O)c4cc(O)cc(O)c4-c4cc3ccc4O)[C@H](O)c3ccc(c(Cl)c3)Oc3cc2cc(c3O[C@@H]2O[C@H](CO)[C@@H](O)[C@H](O)[C@H]2O[C@H]2C[C@](C)(N)[C@H](O)[C@H](C)O2)Oc2ccc(cc2Cl)[C@H]1O [VANCOMYCIN] | > 50 | 12.5 (≈ 8.63 µM) | > 50 | viability at 24 h, 50 µM [3]: 66.1%; viability at 24 h, 100 µM [4]: 65.9%; Activity (THP-1 [5]): 13.88%; Activity (THP-1 [6]): 6.99% |
